Legend:
[1] = molecular target: T1, EGFR (Homo sapiens, UniProt P00533); test: EGFR-TK inhibitory assay; format: biochemical; details: EGFR-TK assay; read-out: EGFR inhibition IC50 ± SEM
T1 construct: cytoplasmic domain (EGFR -CD, amino acids 645–1186); His6 (N); made in house; host or cells: Sf-9 insect cells (baculovirus, pBlueBacHis2B / pFASTBacHTc)
Procedure: 4.2.1.3. EGFR inhibitory assay
EGFR-TK assay was performed to evaluate the inhibitory potency of the tested compounds against EGFR30. Baculoviral expression vectors including pBlueBacHis2B […]
sequence comprised a sequence that encoded (His) 6. Sf-9 cells were infected for 72h for protein expression. The pellets of Sf-9 cells were solubilized in a buffer containing sodium vanadate (100 µM), aprotinin (10 µg/mL), triton (1%), HEPES buffer (50mM), ammonium molybdate (10 µM), benzamidine HCl (16 µg/mL), NaCl (10 mM), leupeptin (10 µg/mL) and pepstatin (10 µg/mL) at 0°C for 20 min at pH 7.4, followed by centrifugation for 20 min. To eliminate the non-specifically bound material, a Ni-NTA super flow packed column was used to pass through and wash the crude extract supernatant first with 10 mM and then with 100 mM imidazole. […]
NaCl (50 mM), HEPES (20 mM), glycerol (10%) and 1 µg/mL each of aprotinin, leupeptin and pepstatin for 120 min. The purification was performed either at 4 °C or on ice. To record autophosphorylation level, EGFR kinase assay was carried out on the basis of DELFIA/Time-Resolved Fluorometry. The compounds were first dissolved in DMSO […]
pH 7.4. Each compound (10 µL) was incubated with recombinant enzyme (10 µL, 5 ng for EGFR, 1:80 dilution in 100 mM HEPES) for 10 min at 25 °C, subsequent to the addition of 5X buffer (10 µL, containing 2 mM MnCl2, 100 µM Na3VO4, 20 mM HEPES and 1 mM DTT) and ATP-MgCl2 (20 µL, containing 0.1 mM ATP and 50 mM MgCl 2) and incubation for 1h. The negative and positive controls were included in each plate by the incuba tion of enzyme either with or without ATP -MgCl2. The liquid was removed after incubation and the plates were washed thrice using wash buffer. Europium -tagged antiphosphotyrosine antibody (75 µL, 400 ng) was added to each well followed by incubation of 1h a nd then washing of the plates using buffer. The enhancement solution was added to each well and the signal was recorded at excitation and emission […]
The autophosphorylation percentage inhibition by compounds was calculated using the following equation: […]
Using the curves of percentage inhibition of eight concentrations of each compound, IC 50

[2] = tested on: MCF-7 (breast cancer cell line); test: Antiproliferative MTT assay, MCF-7; format: cell-based; details: Homo sapiens, MCF7; MCF-7, MTT; read-out: Antiproliferative activity IC50 ± SEM, MCF-7
Procedure: (§1) The MTT assay was performed using various cell lines in accordance with previously reported procedures[28]^,[29] to investigate the antiproliferative potential of VIa-k. Refer to Appendix A. […]
(§2) added (in 200 μL medium to yield a final concentration of 0.1% v/v) to the wells of plates. A single compound was designated with four wells followed by incubation of […]
(§3) After incubation, medium was removed completely from the plates followed by addition of MTT (0.4 mg/mL in medium) to each well and subsequent incubation of plates for 3h. MTT (along with the medium) was removed and DMSO (150μL) was added to each well of the culture plates, followed by vortexing and subsequent measurement of absorbance (at 540 nm) using microplate reader. The data are shown as percentage inhibition of proliferation in comparison with controls containing 4.2.1.2. Assay for antiproliferative effect […]
(§4) The percentage cytotoxicity of compounds was calculated using the following […]
(§5) Where ATC= Absorbance of treated cells and AC= Absorbance of control. […]
(§6) used as positive control in the assay. […]

[3] = molecular target: Human CDK2/A2 (Homo sapiens, UniProt P24941); test: CDK2 inhibitory assay
Procedure: Protein Kinase Assays. Human CDK2/A2 was purchased from New England Biolabs IC50 values for CDK2/A were determined according to the supplier’s instructions

[4] = tested on: four human cancer cell lines (Panc-1, MCF-7, HT-29, A-549); test: Antiproliferative MTT assay, average (GI50) over the four cancer cell lines; format: cell-based; details: Homo sapiens; average of IC50 versus A-549, MCF-7, Panc-1, HT-29
Procedure: The average (GI50) versus the four cancer cell lines was chosen for ease of manipulation.
as §1, §2, §3, §4, §5, §6

T1 sequence (P00533 669-1210): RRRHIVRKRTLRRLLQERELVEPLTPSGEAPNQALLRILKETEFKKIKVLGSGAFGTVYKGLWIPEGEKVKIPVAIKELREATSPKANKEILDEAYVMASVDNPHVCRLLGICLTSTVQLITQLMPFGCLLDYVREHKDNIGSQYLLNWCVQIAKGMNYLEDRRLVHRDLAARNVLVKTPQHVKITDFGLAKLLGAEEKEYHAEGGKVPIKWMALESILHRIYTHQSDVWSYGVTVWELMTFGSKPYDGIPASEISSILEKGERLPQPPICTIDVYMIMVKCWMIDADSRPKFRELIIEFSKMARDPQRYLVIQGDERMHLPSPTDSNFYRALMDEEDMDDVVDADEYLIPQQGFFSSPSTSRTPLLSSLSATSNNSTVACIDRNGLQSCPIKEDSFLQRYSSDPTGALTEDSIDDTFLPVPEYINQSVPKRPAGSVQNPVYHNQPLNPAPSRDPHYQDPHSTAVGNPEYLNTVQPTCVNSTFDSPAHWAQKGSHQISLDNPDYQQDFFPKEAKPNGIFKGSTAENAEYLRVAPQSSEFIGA

SMILES | IC50 [1] [nM] | IC50 [2] [nM] | IC50 [3] [nM] | CDK2 potency relative to the reference dinaciclib (more potent) ([3]; ratio of IC50 values) [fold] | GI50 [4] [nM] | melting point [°C]
N/C(=N/OC(=O)/C=C/C=C/c1ccc2c(c1)OCO2)c1ccc2c(c1)OCO2 [VIk] | 127 ± 10 | 35 ± 3 | 12 ± 2 | 1.5 | 35 | –
NC(=NOC(=O)/C=C/C=C/c1ccc2c(c1)OCO2)c1ccccc1Cl [VIf, N'-{[(2E,4E)-5-(2H-1,3-benzodioxol-5-yl)penta-2,4-dienoyl]oxy}-2-chlorobenzene-1-carboximidamide] | 105 ± 7 | 43 ± 4 | 21 ± 2 | – | 44 | 165 to 167
NC(=NOC(=O)/C=C/C=C/c1ccc2c(c1)OCO2)c1ccc(Br)cc1 [VIc, N'-{[(2E,4E)-5-(2H-1,3-Benzodioxol-5-yl)penta-2,4-dienoyl]oxy}-4-bromobenzene-1-carboximidamide] | 112 ± 8 | 47 ± 5 | 23 ± 2 | – | 50 | 159 to 161

From PMC9721426, “Novel piperine-carboximidamide hybrids: design, synthesis, and antiproliferative activity via a multi-targeted inhibitory pathway” (Journal of Enzyme Inhibition and Medicinal Chemistry, 2022)
